In patent US20060166867A1, “Novel conjugates of polysaccharides and uses thereof” (priority 2003, published 2006):
Values joined by “and” are separate entries in the source; they are usually repeats but may differ in a detail not shown here. Equal values may be shown once.

Experiments:
A. baumannii R16998 = details: Gram negative clinical isolate
[1] = tested on: Enterobacter cloacae W25161; details: Gram negative clinical isolate
[2] = tested on: Enterococcus faecalis-vancomycin^r; details: clinical isolate, Table 7
in vitro = format: cell-based; details: human; Table 4; tryphan blue exclusion assay for MT2 cells; read-out: Cytotoxicity
Experimental: Cytotoxicity of the various pAACs was determined using the trypan blue exclusion assay. In brief, a sample of the cell suspension was diluted 1:1 (v/v) with 0.4% trypan blue and the cells were counted using a hemocytometer. Results are expressed as the percentage of dead cells.
(§1) HIV-1 isolates were propagated by subculture in MT2 cells (Litovchick et al. (2001) supra). Aliquots of cell-free culture supernatants were used as viral inoculum. PAACs were dissolved in the RPMI 1640 medium. Cytotoxicity determinations were carried out in MT2 cells by trypan blue exclusion assay. Viral inhibition was determined by incubating MT2 or cMAGI HIV-1 reporter cells with 0.2-0.5 multiplicity of infection of HIV-1 wild type or resistant virus for 4 days at 37° C. in the presence or absence of various concentrations of pAACs. HIV-1 infection of cMAGI cells was determined by counting the number of HIV-1-infected cells (stained blue). The cytopathic effects of the viral infection of MT2 cells were also analyzed by microscopic assessment of syncytium formation.

S. epidermidis MSSE = details: Gram positive clinical isolate
[3] = tested on: HIV-1 clinical isolate Clade C; format: cell-based; details: Table 4; read-out: EC50 Clade C
Experimental: (§2) Inhibition of HIV-1 cell replication was tested using the cMAGI assay, which is based on the ability of HIV-1 TAT to transactivate the expression of an integrated β-galactosidase reporter gene driven by the HIV-LTR (B. Chackeria et al., J. Virol., (1997) 71, 3932; Collins et al., Nat. Med. (2000) 6, 475). The β-galactosidase reporter is modified to remain localized in the nucleus where it can be detected with the X-gal (5-bromo-4-chloro-3indoyl-β-D-galactopyranoside) substrate as an intense nuclear stain within a few days of infection.
as §1

[4] = tested on: HIV-1 Protease resistant virus; format: cell-based; details: Table 4; read-out: EC50 Protease^Res
Experimental: as §2, §1

[5] = tested on: HIV-1 clinical isolate Clade A; format: cell-based; details: Table 4; read-out: EC50 Clade A
Experimental: as §2, §1

[6] = tested on: HIV-1 NeoR6 resistant virus; format: cell-based; details: read-out: EC50 NeoR6^Res; Table 4
Experimental: as §2, §1

HIV-1 Ba-L = format: cell-based; details: Table 4
Experimental: as §2, §1

[7] = tested on: HIV-1 AZT resistant virus; format: cell-based; details: Table 4; read-out: EC50 AZT^Res
Experimental: as §2, §1

[8] = tested on: Pseudomonas aeruginosa ATCC 27853; details: Gram negative reference strain
[9] = tested on: Acinetobacter baumannii ATCC 19606; details: Gram negative reference strain
S. aureus MSSA = details: Gram positive clinical isolate
[10] = tested on: Escherichia coli ATCC 25922; details: Gram negative reference strain
[11] = tested on: P. aeruginosa-gentamicin^r, meropenem^r; details: Gram negative clinical isolate
CXCR4 = biological target: T1, CXCR4 (Homo sapiens, UniProt P61073); assay: Competition with 12G5 mAb binding to CXCR4 on MT2 cells (flow cytometry)
T1 construct: incubated at 4° C. with anti-CXCR4 mAb, 12G5, conjugated to phycoerithrine (PE); endogenous in cells; host or cells: MT2 cells
T1 sequence (P61073 whole entry): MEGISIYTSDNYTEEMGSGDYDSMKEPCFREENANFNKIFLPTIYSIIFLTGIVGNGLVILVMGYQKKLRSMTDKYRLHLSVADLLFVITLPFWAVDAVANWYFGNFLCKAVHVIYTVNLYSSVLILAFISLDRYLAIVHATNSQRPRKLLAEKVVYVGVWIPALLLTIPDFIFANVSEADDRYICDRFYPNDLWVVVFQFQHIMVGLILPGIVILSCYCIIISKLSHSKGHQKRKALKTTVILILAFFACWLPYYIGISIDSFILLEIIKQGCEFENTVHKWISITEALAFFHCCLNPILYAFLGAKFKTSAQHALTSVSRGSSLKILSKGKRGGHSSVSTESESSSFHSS
Experimental: Interaction of pAACs and arginine peptides with CXCR4 coreceptor: Interactions of pAACs and arginine-peptides with CXCR4 were determined by flow cytometry (FACS-Scan, Becton Dickinson) as previously described (Litovich (2001) supra). In brief, 0.5×10^6 MT2 cells were washed with ice-cold PBS containing 0.1% sodium azide (wash buffer) and were incubated at 4° C. with anti-CXCR4 mAb, 12G5, conjugated to phycoerithrine (PE), in the absence or presence of different concentrations of pAACs and arginine peptides. After 30 minutes of incubation, the cells were washed with ice-cold wash buffer and fixed in PBS containing 1% paraformaldehyde. Non-specific fluorescence was assessed using an isotype control. For each sample 10,000 events were acquired. Data were analyzed and processed using CellQuest™ software (Becton Dickinson).

Enterobacter cloacae = details: Gram negative clinical isolate
[12] = tested on: A. baumannii-amikacin^s, meropenem^s; details: Gram negative clinical isolate
E. Coli-ESBL negative = details: Gram negative clinical isolate
[13] = tested on: A. baumannii-amikacin^r, meropenem^r; details: Gram negative clinical isolate
Enterobacter aerogenes = details: Gram negative clinical isolate
[14] = tested on: Proteus mirabilis ATCC 7002; details: Gram negative reference strain
[15] = tested on: K. pneumoniae-ESBL negative; details: Gram negative clinical isolate
S. epidermidis MRSE = details: Gram positive clinical isolate
[16] = tested on: P. aeruginosa-gentamicin^s, meropenem^s; details: Gram negative clinical isolate
S. aureus MRSA = details: Gram positive clinical isolate
HIV-1 IIIB = assay: microbe, parasite or virus in culture; format: cell-based; details: Table 4; read-out: EC50 IIIB
Experimental: as §2, §1

E. Coli B3095141^r = details: clinical isolate, Table 7
[17] = tested on: K. pneumoniae-ESBL positive; details: Gram negative clinical isolate
[18] = tested on: Staphylococcus aureus ATCC 24213; details: Gram positive reference strain
E. Coli-ESBL positive = details: Gram negative clinical isolate
[19] = tested on: Klebsiella pneumoniae ATCC 13883; details: Gram negative reference strain

CC(=O)N[C@H](CCCNC(=N)N)C(=O)N[C@H](CCCNC(=N)N)C(=O)N[C@H](CCCNC(=N)N)C(=O)N[C@H](CCCNC(=N)N)C(=O)N[C@H](CCCNC(=N)N)C(=O)N[C@H](CCCNC(=N)N)C(=O)N[C@H](CCCNC(=N)N)C(=O)N[C@H](CCCNC(=N)N)C(=O)N[C@H](CCCNC(=N)N)C(=O)NC[C@H]1O[C@H](O[C@H]2[C@H](O)[C@@H](O)[C@H](N)C[C@@H]2N)[C@H](N)[C@@H](O)[C@@H]1O [Compound 13, D-Arg-9-mer-neamine]
Minimum Inhibitory Concentration (A. baumannii R16998): 128.0 mg/liter and 51.41 μM | Minimum Inhibitory Concentration [1]: 24.0 mg/liter and 9.64 μM | Minimum Inhibitory Concentration [2]: 64.0 mg/liter and 25.70 μM | CC50 (in vitro): 150000 nM | Minimum Inhibitory Concentration (S. epidermidis MSSE): 0.5 mg/liter and 0.20 μM | EC50 [3]: 2700 ± 500 nM | EC50 [4]: 2400 ± 400 nM | EC50 [5]: 5100 ± 2900 nM | EC50 [6]: 3000 ± 1000 nM | EC50 (HIV-1 Ba-L): > 50000 nM | EC50 [7]: 10400 ± 2700 nM | Minimum Inhibitory Concentration [8]: 96.0 mg/liter and 38.55 μM | Minimum Inhibitory Concentration [9]: 16.0 mg/liter and 6.40 μM | Minimum Inhibitory Concentration (S. aureus MSSA): 1.5 mg/liter and 0.60 μM | Minimum Inhibitory Concentration [10]: 6.0 mg/liter and 2.40 μM | Minimum Inhibitory Concentration [11]: 96.0 mg/liter and 38.55 μM | inhibition at 2 µM (CXCR4; read-out: % Inhibition of 12G5 mAb binding to CXCR4, 2 μM): 67.3% | inhibition at 10 µM (CXCR4; read-out: % Inhibition of 12G5 mAb binding to CXCR4, 10 μM): 100% | Minimum Inhibitory Concentration (Enterobacter cloacae): 8.0 mg/liter and 3.20 μM | Minimum Inhibitory Concentration [12]: 12.0 mg/liter and 4.8 μM | Minimum Inhibitory Concentration (E. Coli-ESBL negative): 6.0 mg/liter and 2.40 μM | Minimum Inhibitory Concentration [13]: 96.0 mg/liter and 38.55 μM | Minimum Inhibitory Concentration (Enterobacter aerogenes): 16 mg/liter and 6.40 μM | Minimum Inhibitory Concentration [14]: 8.0 mg/liter and 3.20 μM | Minimum Inhibitory Concentration [15]: 3.0 mg/liter and 1.20 μM | Minimum Inhibitory Concentration (S. epidermidis MRSE): 0.5 mg/liter and 0.20 μM | Minimum Inhibitory Concentration [16]: 48.0 mg/liter and 19.28 μM | Minimum Inhibitory Concentration (S. aureus MRSA): 1.5 mg/liter and 0.60 μM | EC50 (HIV-1 IIIB): 2300 ± 500 nM | Minimum Inhibitory Concentration (E. Coli B3095141^r): 6.0 mg/liter and 2.40 μM | Minimum Inhibitory Concentration [17]: 3.0 mg/liter and 1.20 μM | Minimum Inhibitory Concentration [18]: 2.0 mg/liter and 0.80 μM | Minimum Inhibitory Concentration (E. Coli-ESBL positive): 8.0 mg/liter and 3.20 μM | Minimum Inhibitory Concentration [19]: 1.5 mg/liter and 0.60 μM
